How the values were obtained:
Format in all cases: cell-based
[1] = test system: rat peritoneal mast cells; test: MAPK activation: phosphorylation of ERK1/2 in rat peritoneal mast cells (RPMC); conditions: PTX 0.1 μg/mL, 4 hours before assay
Experimental: Pertussis toxin (hereinafter PTX) was added to the cells in a final concentration of 0.1 μg/mL 4 hours before assay. RPMC was washed in ice-chilled assay buffer (Tyrode Buffer, 0.01% fatty acid free-BSA (SIGMA), 1 mM CaCl2, 1 mM MgCl2), and suspended in 2×10^6 cells/ml. The suspension was dispensed in a 1.5 mL tube followed by preincubation for 15 minutes at 37° C. The lysoPS solution was added thereto in an equimolar amount. After incubation at 37° C., the reaction was terminated by quenching. The cells were precipitated by centrifugation and the assay buffer was aspirated. After washing in PBS, 1×SDS sample buffer/DTT was added to the cells to lyse the cells. After ultrasonication for 15 seconds, heating at 95° C. for 5 minutes was followed by quenching.
(§1) Detection by SDS-PAGE and western blotting were performed as follows. After separation using 10% Bis-Tris gel (Invitrogen), the gel was transferred to Immuno-Blot PVDF Membrane (BIO-RAD). The membrane was blocked with Block Ace (Dai-Nippon Pharmaceutical) and incubated at 4° C. overnight with a primary antibody (Phospho-p42/p44 MAP Kinase (Thr202/Thr204) Antibody (CST) or p42/p44 MAP Kinase Antibody (CST)) and further incubated at room temperature for an hour with a secondary antibody (Anti-rabbit IgG (CST)). The membrane after the antibody reaction was visualized by chemiluminescence using ECL PLUS (Amersham Biosciences). […]

[2] = target: T1, GPR34 (Homo sapiens, UniProt Q9UPC5); test: MAPK activation: phosphorylation of ERK1/2 in human GPR34-expressed CHO cells (western blotting); conditions: PTX 0.1 μg/mL, 20 hours before the assay
T1 construct: expressed in transfected cells
T1 sequence (Q9UPC5 whole entry): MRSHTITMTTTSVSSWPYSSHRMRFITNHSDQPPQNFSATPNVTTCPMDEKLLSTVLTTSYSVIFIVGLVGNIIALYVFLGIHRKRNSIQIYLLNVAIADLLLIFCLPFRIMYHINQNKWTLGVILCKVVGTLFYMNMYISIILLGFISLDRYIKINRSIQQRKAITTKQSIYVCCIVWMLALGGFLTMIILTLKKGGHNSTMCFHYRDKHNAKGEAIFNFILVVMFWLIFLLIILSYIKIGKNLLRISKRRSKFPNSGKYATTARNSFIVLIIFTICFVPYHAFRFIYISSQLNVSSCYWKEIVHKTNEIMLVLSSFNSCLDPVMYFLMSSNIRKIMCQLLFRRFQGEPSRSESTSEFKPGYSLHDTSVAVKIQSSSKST
Experimental: The cells were prepared as described below. Human GPR34-expressed CHO cells were scraped off with 0.05% trypsin-EDTA (GIBCO) and suspended in a medium (MEM-α (GIBCO), supplemented with 10% FBS (GIBCO) and penicillin/streptomycin (BIOWHITTAKER)). After centrifugation, the cells precipitated were suspended in the medium in 2×10^5 cells/ml and a 1 mL aliquot was plated on a 35 mm cell culture dish. After incubation overnight in a CO2 incubator, the medium was aspirated and washed in PBS. Then 1 mL of serum-free medium (MEM-α (GIBCO), supplemented with penicillin/streptomycin (BIOWHITTAKER)) and incubation was performed in a CO2 incubator. Pertussis toxin (hereinafter PTX) was added in a final concentration of 0.1 μg/mL 20 hours before the assay.
The cells were activated as follows. The medium was aspirated and washed in PBS. Thereafter, 500 μL of assay buffer (HBSS (GIBCO), 10 mM HEPES (Dojin Chemical Laboratory)) was added to perform preincubation for 15 minutes at 37° C. The lysoPS solution and […] of PECGF ([…] cell growth factor) solution as a positive control were added. After the mixture was incubated at 37° C., the reaction was terminated by quenching. The assay buffer was aspirated and washed in PBS. Then, 1×SDS sample buffer/DTT was added to the cells to recover the cells. After ultrasonication for 15 seconds, heating at 95° C. for 5 minutes was followed by quenching.
as §1, with “Membrane (Bio-Rad).” for “Membrane (BIO-RAD).”, “at room temperature for an hour” for “at 4° C. overnight”, “hour using” for “hour with”

[3] = test system: mouse bone marrow-derived mast cells; test: MAPK activation: phosphorylation of ERK1/2 in mouse bone marrow-derived mast cells (BMMC); conditions: PTX 0.1 μg/mL, 4 hours before assay
Experimental: BMMC was established by collecting bone marrow fluid from the femur of male BALB/c mouse (Japan SLC), rinsing in RPMI1640 (Nikken Bio Medical Laboratory) and then incubating in a medium (RPMI1640, 50% WEHI-3 culture supernatant, 10% FBS (GIBCO), penicillin/streptomycin (BIOWHITTAKER), Non-Essential amino acids (GIBCO)) for 4 weeks. The cells were incubated in a CO2 incubator immediately before assay. Pertussis toxin (hereinafter PTX) was added to the cells in a final concentration of 0.1 μg/mL 4 hours before assay. BMMC was washed in ice-chilled assay buffer (Tyrode Buffer, 0.01% fatty acid free-BSA (SIGMA), 1 mM CaCl2, 1 mM MgCl2), and suspended in 2×10^6 cells/ml. The suspension was dispensed in a 1.5 mL tube followed by preincubation for 15 minutes at 37° C. The lysoPS solution and A23187 solution (Wako Pure Chemicals) as a positive control were added in equimolar amounts. After incubation at 37° C., the reaction was terminated by quenching. The cells were precipitated by centrifugation and the assay buffer was aspirated. After washing in PBS, 1×SDS sample buffer/DTT was added to the cells to lyse the cells. After ultrasonication for 15 seconds, the sample was heated at 95° C. for 5 minutes followed by quenching.
Detection by SDS-PAGE and western blotting were performed as follows. After separation using 10% Bis-Tris gel (Invitrogen), the gel was transferred to Immuno-Blot PVDF Membrane (BIO-RAD). The membrane was blocked with Block Ace (Dai-Nippon Pharmaceutical) and incubated at 4° C. overnight with a primary antibody (Phospho-p42/p44 MAP Kinase (Thr202/Thr204) Antibody (CST) or p42/p44 MAP Kinase Antibody (CST)) and further incubated at room temperature for an hour using a secondary antibody (Anti-rabbit IgG (CST)). The membrane after the antibody reaction was visualized by chemiluminescence using ECL PLUS (Amersham Biosciences). Detection and image analysis were performed using LAS1000 (FUJI FILM).

[4] = test system: other receptor expression cells; test: cAMP production inhibitory activity on other receptor expression cells
[5] = target: T1, GPR34; test: Intracellular cAMP production inhibitory activity on GPR34-expressed CHO cells (forskolin stimulated); conditions: phosphatidylserine in a higher concentration
Experimental: The GPR34-expressed CHO cells prepared in (1-2) described above and selected in (1-3) described above were plated on a 24-well plate in 6×10^4 cells/well followed by incubation for 48 hours. The cells were washed with αMEM medium (pH 7.5) containing 0.2 mM 3-isobutylmethylxanthine, 0.05% BSA and 20 mM HEPES (hereinafter αMEM medium (pH 7.5) containing 0.2 mM 3-isobutylmethylxanthine, 0.05% BSA and 20 mM HEPES is referred to as the reaction buffer). Thereafter, 0.5 mL of the reaction buffer was added and the mixture was kept warm for 30 minutes in an incubator. The reaction buffer was removed and 0.25 mL of fresh reaction buffer was replenished to the cells. Then, 0.25 mL of the reaction buffer containing a sample and 2 μM forskolin was added to the cells, followed by reacting at 37° C. for 30 minutes. The reaction solution was removed and 0.5 mL of the cell lysis solution attached to cAMP EIA kit (Applied Biosystems) to extract cAMP in the cells. The cAMP level in the extract was quantified using the same kit. Based on this measurement data, the cAMP production inhibitory activity was calculated based on the equation shown below and expressed in terms of percentage to the control group. […]

| Substance | effect of PTX pretreatment on phosphorylation of ERK1/2 by lysoPS [1] | effect of PTX pretreatment on phosphorylation of ERK1/2 by lysoPS [2] | effect of PTX pretreatment on phosphorylation of ERK1/2 by lysoPS [3] | cAMP production inhibitory action on other receptor expression cells [4] | cAMP production inhibitory activity [5] |
| --- | --- | --- | --- | --- | --- |
| Pertussis toxin [PTX] | attenuated to the level below the detection limit | attenuated to the level below the detection limit | attenuated to the level below the detection limit | – | – |
| phosphatidylserine | – | – | – | not noted | marked activities |
